Reference: patent publication US20240139196A1, “COMBINATION TREATMENTS IN DIFFICULT TO TREAT PATIENTS WITH ADVANCED AND/OR METASTATIC TROP-2 OVEREXPRESSING CANCERS” (G1 Therapeutics, Inc., priority 2021, published 2024)
Values joined by “and” are separate entries in the source; they are usually repeats but may differ in a detail not shown here. Identical values can stand only once. “Also recorded” adds a separate entry of the source.

Experiments:
[1] = test system: patients with metastatic urothelial carcinoma (mUC) progressing after platinum-based chemotherapy and ICIs; settings: following progression; cited from earlier work
[2] = test system: patients with PD-L1 positive locally advanced unresectable/metastatic TNBC; settings: cited from earlier work
[3] = test system: patients with unresectable locally advanced/metastatic triple-negative breast cancer, PD-L1 positive; settings: paclitaxel with vs without atezolizumab, cited from earlier work
[4] = test system: patients with unresectable locally advanced or metastatic TNBC who received at least 2 prior treatments; assay: Phase 2 single-arm open-label study of trilaciclib administered prior to sacituzumab govitecan-hziy (NCT05113966); type: in vivo, human; settings: for Grade ≥3 TRAEs related to the named study drug / patients with AEs related to the named study drug: combination study, attribution by investigators
Method: Early results from initial human clinical trials (see, e.g., NCT05113966) have shown trilaciclib's ability to drastically reduce side effects associated with sacituzumab govitecan administration, including a reduction in the incidence of severe (Grade 3/4) neutropenia (see, for example, Example 1, FIG. 2A). In the initial studies, 8 female patients (median age 55.0 years) had been enrolled and completed a median 3 (range 1-6) 21-day cycles, wherein sacituzumab govitecan was administered on days 1 and 8 of each 21-day cycle, and trilaciclib was administered over a 30 minute intravenous administration within 4 hours prior to administration of sacituzumab govitecan on days 1 and 8 of each 21-day cycle (see, e.g., FIG. 1). All patients had received a prior taxane and 7 had received a prior immune checkpoint inhibitor (5 atezolizumab, 2 pembrolizumab; 4 in the adjuvant setting, 3 in the metastatic setting). Severe (Grade 3/4) neutropenia occurred in only 1 patient (12.5% with trilaciclib compared with 52% in the ASCENT study). No patients had Grade 3/4 anemia or thrombocytopenia, and none had febrile neutropenia or a serious infection. Granulocyte colony-stimulating factors were administered to 2 patients (25%) and 1 patient required intravenous antibiotics. No patients required red blood cell/platelet transfusions or erythropoiesis-stimulating agents. […] There was only 1 treatment-related adverse event of diarrhea.
FIG. 1 is a schematic of a human clinical trial assessing the safety and efficacy of trilaciclib administered with sacituzumab govitecan-hziy (Trodelvy®) in patients with locally advanced or metastatic TNBC who received at least 2 prior treatments, at least 1 in the metastatic setting. The study will include 3 study phases: Screening Phase, treatment Phase, and Survival Follow-up Phase. The treatment phase consists of 21-day cycles: Trilaciclib will be administered IV prior to sacituzumab govitecan-hziy infusions. Trilaciclib will be administered via IV prior to sacituzumab govitecan-hziy administration at 240 mg/m^2. Sacituzumab govitecan-hziy will be administered via IV at 10 mg/kg. The study will include 3 study phases: Screening Phase, Treatment Phase, and Survival Follow up Phase. The Treatment Phase begins on the day of the first dose of study treatment and completes at the Safety Follow-up Visit. The first Survival Follow-up assessment should occur approximately 3 months after the End of Treatment Visit. DC=discontinuation, PD=Progressive disease, PI=Principal Investigator, WD=Withdraw.
An exploratory Phase 2, multicenter, open-label study evaluating the safety and efficacy of trilaciclib administered with sacituzumab govitecan-hziy in patients with unresectable locally advanced or metastatic TNBC who received at least 2 prior treatments, at least 1 in the metastatic setting, is provided herein.
Trilaciclib plus sacituzumab govitecan-hziy will be administered intravenously (IV) in 21-day cycles as follows: • Trilaciclib 240 mg/m^2 administered as a 30-minute IV infusion completed within 4 hours prior to the start of sacituzumab govitecan-hziy on Day 1 and Day 8 of each 21-day treatment cycle. • Sacituzumab govitecan-hziy 10 mg/kg administered IV on Day 1 and Day 8 of each 21-day treatment cycle.
The first infusion of sacituzumab govitecan-hziy is administered over 3 hours and the patient is observed during the infusion and for at least 30 minutes following the initial dose for signs or symptoms of infusion-related reactions. Subsequent infusions of sacituzumab govitecan-hziy may be administered over 1 to 2 hours if prior infusions were tolerated and patients should be observed during the infusion and for at least 30 minutes after infusion. […]

[5] = test system: patients with unresectable locally advanced or metastatic triple-negative breast cancer (mTNBC); settings: cited from earlier work
[6] = test system: patients with metastatic TNBC; settings: N=108; cited from earlier work
[7] = test system: patients with locally advanced or mUC after platinum-containing chemotherapy and PD-1 or PD-L1 inhibitor; settings: cited from earlier work
[8] = test system: patients treated with sacituzumab govitecan-hziy; settings: cited from earlier work
patients with mUC = settings: in vivo; cited from earlier work
[9] = test system: patients with locally recurrent unresectable or metastatic TNBC whose tumors express PD-L1 (CPS ≥10); settings: cited from earlier work
[10] = mTNBC relapsed after at least two prior chemotherapies
[11] = vs physician's choice of single-agent chemotherapy
[12] = trilaciclib prior to sacituzumab govitecan, 8 patients
[13] = trilaciclib prior to sacituzumab govitecan, RECIST v1.1, 8 patients

## CC[C@]12C=CCN3CC[C@@]4(c5cc([C@@]6(C(=O)OC)C[C@@H]7C[C@@H](C(C)(F)F)CN(Cc8c6[nH]c6ccccc86)C7)c(OC)cc5N(C)[C@H]4[C@@](O)(C(=O)OC)[C@@H]1OC(C)=O)[C@@H]32 [vinflunine]
[1]
  median overall survival (OS): 7-8 months
  response rates: approximately 10%

## atezolizumab: a programmed death-ligand 1 (PD-L1) blocking antibody (immune checkpoint inhibitor)
[2]; PD-L1 positive subset, atezolizumab or placebo plus nab-paclitaxel
  survival (lived for an average of): 25 months
[2]; PD-L1 positive tumors, atezolizumab plus nab-paclitaxel vs placebo plus nab-paclitaxel
  median progression-free survival (PFS): 7.4 months
[2]; PD-L1 positive, atezolizumab plus nab-paclitaxel vs placebo plus nab-paclitaxel
  PFS hazard ratio [HR]: 0.60
[3]; frontline
  PFS HR: 0.82
[3]
  survival HR: 1.11

## sacituzumab govitecan
[4]; 8 patients
  Grade ≥3 TRAEs related to the named study drug: Grade 3 alopecia and Grade 3 neutropenia; also recorded: Grade 4 neutrophil count decreased
  patients with AEs related to the named study drug: 5 patients
[5]; ASCENT study, without trilaciclib
  Severe (Grade 3/4) neutropenia, patients: 52%
[5]; ASCENT study
  G-CSF used as a rescue therapy, patients: 44%
  adverse reaction leading to a dose reduction, patients: 22%
  adverse reaction leading to treatment interruption, patients: 45%
[5]; mTNBC patients, ASCENT study
  permanently discontinued for adverse reactions, patients: 5%
[5]; [10]
  median overall survival (OS): 11.8 months
  median progression free survival (PFS): 4.8 months
[5]; [11]
  OS hazard ratio (HR): 0.51
  PFS hazard ratio [HR]: 0.43
[6]
  ORR: 33.3%
  median duration of response (DOR): 7.7 months
  patients having a DOR of ≥6 months: 55.5%
  patients having a DOR of ≥12 months: 16.7%
[7]; 10 mg/kg intravenously, days 1 and 8 of a 21-day cycle, 112 patients, RECIST 1.1
  objective (overall) response rate (ORR): 27.7%
[7]; 10 mg/kg intravenously, days 1 and 8 of a 21-day cycle
  median duration of response (DOR): 7.2 months and 7.1 months
[7]; 112 patients
  complete responses: 5.4%
  partial responses: 22.3%
[8]; all grades, all patients treated
  Diarrhea, patients: 65%
[8]; all grades
  neutropenia, patients: 61%
[8]; all patients treated
  Grade 3-4 diarrhea, patients: 12%
[8]; in vivo
  Grade 3-4 neutropenia, patients: 47%
  Neutropenic colitis, patients: 0.5%
  febrile neutropenia, patients: 7%
  intestinal perforation following diarrhea, number of patients: One

## COc1cc(OC)cc(N(CCNC(C)C)c2ccc3ncc(-c4cnn(C)c4)nc3c2)c1 [erdafitinib]
Patients with mUC
  objective response rates (ORRs): approximately 40%

## pembrolizumab: PD-1 inhibitor given in combination with chemotherapy for PD-L1 expressing TNBC
[9]; pembrolizumab plus chemotherapy arm
  median PFS: 9.7 months
[9]; pembrolizumab plus chemotherapy vs placebo arm
  PFS HR: 0.65

## CN1CCN(c2ccc(Nc3ncc4cc5n(c4n3)C3(CCCCC3)CNC5=O)nc2)CC1 [trilaciclib, 2′-((5-(4-methylpiperazin-1-yl)pyridin-2-yl)amino)-7′,8′-dihydro-6′H-spiro(cyclohexane-1,9′-pyrazino(1′,2′:1,5)pyrrolo(2,3-d)pyrimidin)-6′-one]
[4]; 8 patients
  Grade ≥3 TRAEs related to the named study drug: Grade 4 neutrophil count decreased
  patients with AEs related to the named study drug: 2 patients
[4]; initial studies, compared with ASCENT study
  effect of inclusion of trilaciclib on side effects associated with sacituzumab govitecan: drastically reduces the side effects
[4]; trilaciclib 240 mg/m^2 IV within 4 hours prior to sacituzumab govitecan-hziy 10 mg/kg, days 1 and 8 of 21-day cycles, 8 patients
  Severe (Grade 3/4) neutropenia, number of patients: 1 patient
[4]; trilaciclib administered prior to sacituzumab govitecan, preliminary data
  tolerability: well tolerated
[4]; trilaciclib prior to sacituzumab govitecan, days 1 and 8 of 21-day cycles, 8 patients
  Severe (Grade 3/4) neutropenia, percentage of patients: 12.5%
[4]; [12]
  Grade 3/4 anemia, patients: No patients
  Grade 3/4 thrombocytopenia, patients: No patients
  Granulocyte colony-stimulating factors administered, number of patients: 2 patients
  Granulocyte colony-stimulating factors administered, percentage of patients: 25%
  febrile neutropenia, patients: none
  patients with Grade ≥3 TRAEs: Two
  patients with ≥1 treatment-related adverse event (TRAE): 5 patients
  required erythropoiesis-stimulating agents, patients: No patients
  required intravenous antibiotics, number of patients: 1 patient
  required red blood cell/platelet transfusions, patients: No patients
  serious adverse events reported to date: no serious AEs; also recorded: no serious adverse events
  serious infection, patients: none
  withdrawn due to an adverse event, patients: No patients
[4]; trilaciclib prior to sacituzumab govitecan, 8 patients, trilaciclib- and sacituzumab govitecan-related
  treatment-related adverse event (TRAE) of diarrhea, number: 1
[4]; [13]
  partial response, number of patients: one
  stable disease, number of patients: three
